Where no end group is shown, it is not given here. [ ]: non-standard residue; d: D form. The star is where a group is joined. AOA = aminooxyacetyl (N-terminus modified with aminooxyacetamide), NOCC(=O)*; pY = N[C@@H](Cc1ccc(OP(=O)(O)O)cc1)C(=O)O
biological target: corresponding anti-peptide antibody; assay: Dissociation constants (KD) between peptide and its corresponding antibody, ForteBio instrument; assay type: binding, rabbit
Source text: Goat anti-mouse and goat anti-rabbit antibodies were purchased from ImmunoReagents, Inc. (Raleigh, NC). Rabbit monoclonal anti-estrogen receptor (ER), anti-progesterone receptor (PR) and anti-HER2/neu receptor (HER2) antibodies were purchased from Epitomics, Inc. (Fremont, CA). Mouse anti-Ki67 was purchased from BD Biosciences, San Diego, CA Rabbit monoclonal anti-peptide antibodies against PEP1, PEP2, PEP3, PEP4, and PEP5 were obtained from AvantGen, Inc. (San Diego, CA).
The “AOA” group (aminooxyacetamide) was used to attach the peptide to the 4FB-modified primary antibody. Also shown in Table 1 are the dissociation constants (KD) between peptide and its corresponding antibody. These values were obtained using a ForteBio instrument (www.fortebio.com).

Q: With “AOA-DATNVGDEGGFAPNILENK ({AOA}-DATNVGDEGGFAPNILENK) [PEP3]” as the substance, how does the Kd read?
A: 0.09 nM

Q: For “AOA-DITSDTSGDFR ({AOA}-DITSDTSGDFR) [PEP2]”, which Kd is on record?
A: 0.16 nM

Q: “AOA-ETSGLQEQRNHLQGK-NH2 (HELM PEPTIDE1{[NOCC(=O)[*:2]].E.T.S.G.L.Q.E.Q.R.N.H.L.Q.G.K.[am]}$$$$V2.0; SMILES CC(C)C[C@H](NC(=O)CNC(=O)[C@H](CO)NC(=O)[C@@H](NC(=O)[C@H](CCC(=O)O)NC(=O)CON)[C@@H](C)O)C(=O)N[C@@H](CCC(N)=O)C(=O)N[C@@H](CCC(=O)O)C(=O)N[C@@H](CCC(N)=O)C(=O)N[C@@H](CCCNC(=N)N)C(=O)N[C@@H](CC(N)=O)C(=O)N[C@@H](Cc1c[nH]cn1)C(=O)N[C@@H](CC(C)C)C(=O)N[C@@H](CCC(N)=O)C(=O)NCC(=O)N[C@@H](CCCCN)C(N)=O) [PEP6]” was tested. Which Kd did it give?
A: 0.02 nM

Q: Which Kd does the source give for “AOA-GLEPGQEYNVLLTAEK ({AOA}-GLEPGQEYNVLLTAEK) [PEP4]” here?
A: 0.09 nM

Q: How did the Kd turn out when “AOA-LALQAQPVPDELVTK ({AOA}-LALQAQPVPDELVTK) [PEP1]” was run?
A: 0.09 nM

Q: “AOA-RPHFPQF-pY-SASGTA ({AOA}-RPHFPQF[pY]SASGTA) [PEP5]” was tested. Which Kd did it give?
A: 0.04 nM

— patent publication US11867696B2, “Antigen-coupled immunoreagents” (CELL IDX, INC., priority 2015, dated 2024)
